Assay results: BindingDB's records for doi:10.1021/jm00159a013 (1986)

Target: Prostacyclin synthase (Sus scrofa)
Test: Inhibition of porcine aorta prostacyclin PGI-2 synthetase

SMILES | IC50 [µM]
Cc1c(Cn2ccnc2)sc2cc(C(=O)O)ccc12 [2-Imidazol-1-ylmethyl-3-methyl-benzo[b]thiophene-6-carboxylic acid] | > 100
Cc1c(Cn2ccnc2)sc2ccc(C(=O)O)cc12 [2-Imidazol-1-ylmethyl-3-methyl-benzo[b]thiophene-5-carboxylic acid] | > 100
O=C(O)c1ccc2oc(Cn3ccnc3)c(Cl)c2c1 [3-Chloro-2-imidazol-1-ylmethyl-benzofuran-5-carboxylic acid] | > 100
Cc1c(Cn2ccnc2)oc2ccc(C(=O)O)cc12 [2-Imidazol-1-ylmethyl-3-methyl-benzofuran-5-carboxylic acid] | > 100
O=C(O)c1ccc2c(Cl)c(Cn3ccnc3)sc2c1 [3-Chloro-2-imidazol-1-ylmethyl-benzo[b]thiophene-6-carboxylic acid] | > 100
O=C(O)c1ccc2sc(Cn3ccnc3)cc2c1 [2-Imidazol-1-ylmethyl-benzo[b]thiophene-5-carboxylic acid] | > 100
